Experimental data taken from patent publication US7973219B2, “Method for producing transgenic plants resistant to weed control compounds which disrupt the porphyrin pathways of plants” (Sumitomo Chemical Company, Limited, priority 1998, dated 2011).
Read-outs that look alike come from different tables or passages of the source.

Tested on: control recombinant tobacco
Test: Leaf piece chlorophyll test, control recombinant tobacco
Type: in vivo
Settings: control recombinant tobacco; for activity at 0.3 ppm: Nicotiana tabacum, read-out: Resistant level to test compound
Protocol: Then, according to the method described in Manual for Gene Manipulation of Plant (by Hirofumi UCHIMIYA, Kodan-sha Scientific, 1992), the gene was introduced into tobacco. Agrobacterium strain bearing plasmid pBIBCH was cultured at 28° C. overnight in LB medium and then leaf pieces of tobacco cultured sterilely were dipped in the liquid culture medium. The leaf pieces were cultured at room temperature for 2 days in Murashige-Skoog medium (MS-medium, described in Murasige T. and Skoog F., Physiol. Plant. (1962) 15, p 473) containing 0.8% agar, 0.1 mg/liter naphthalene acetic acid and 1.0 mg/liter benzyl aminopurine. Then, the leaf pieces were washed with sterilized water and cultured for 7 days on MS medium containing 0.8% agar, 0.1 mg/liter naphthalene acetic acid, 1.0 mg/liter benzyl aminopurine and 500 μg/ml cefotaxime. The leaf pieces were transplanted onto MS medium containing 0.8% agar, 0.1 mg/liter naphthalene acetic acid, 1.0 mg/liter benzyl aminopurine, 500 μg/ml cefotaxime and 100 μg/ml kanamycin (hereinafter referred to as selective MS medium) and cultured on the medium continuously for 4months with transplanting the tobacco leaf pieces onto fresh selective MS medium every 1 month. During culture, stem-leaf differentiated shoots were appeared from the tobacco leaf pieces, these shoots were transplanted to MS medium containing 0.8% agar, 300 μg/ml cefotaxime and 50 μg/ml kanamycin to induce roots to obtain regenerated plants. The resultant regenerated plant was transplanted and cultured on MS medium 0.8% agar and 50 μg/ml kanamycin to obtain tobacco plant into which bchH gene was introduced. Similarly, tobacco leaf pieces were infected with Agrobacterium strain bearing pNO to obtain regenerated plant from the tobacco leaf pieces and tobacco plant (hereinafter referred to as control recombinant tobacco).
The tobacco leaves into which bchH gene was introduced and control recombinant tobacco leaves obtained in Example 5 were collected and each leaf was divided into the right and left equivalent pieces along the main vein, respectively. To one piece was applied an aqueous solution containing 0.3 ppm PPO inhibitory-type herbicidal compound of Structure 8, while, to the other piece was not applied the compound. These leaf pieces were placed on MS medium containing 0.8% agar and allowed to stand at room temperature for 7 days in light place. Then, each leaf piece was ground with pestle and mortar in 5 ml of 80% aqueous acetone solution to extract chlorophyll. The extract liquid was diluted with 80% aqueous acetone solution and the absorbance was measured at 750 nm, 663 nm and 645 nm to calculate total chlorophyll content according to the method described by Macknney G., J. Biol. Chem. (1941) 140, p 315. The results obtained from 4 clones of tobacco into which bchH gene was introduced (BCH1 to 4) and control recombinant tobacco is shown in Table 4. In the table, the resistant level to the herbicidal compound was represented by percentages of the total chlorophyll content of leaf pieces treated with herbicidal compound to that of untreated leaf pieces.
The tobacco clone into which bchH gene was introduced and control recombinant tobacco were also treated in the same manner with the solution containing PPO inhibitory-type herbicidal compound represented by the above Structure 3, 7, 10, 11, 13, 17, 23, 24, 25, 27, 28, 30 or 35, and the resistant level to each herbicidal compound was measured. In the table, the resistant levels to the herbicidal compound were represented by percentages of the total chlorophyll content of leaf pieces treated with the herbicidal compound to that of untreated leaf pieces.
The level of resistance to PPO inhibitory type herbicidal compound represented by Structure 8 was confirmed quantitatively by testing tobacco into which the gene encoding the variant soybean PPO prepared in Example 13 was introduced according to the same manner as in Example 6. […]

## C#CCOc1cc(N2C(=O)C3=C(CCCC3)C2=O)c(F)cc1Cl [Structure 8]
168 h, 0.3 ppm, 7 days in light, chlorophyll of treated vs untreated leaf pieces, Table 4
  activity at 0.3 ppm: 7.63%
Same manner as Example 6 (0.3 ppm), treated vs untreated leaf pieces, Table 8
  activity at 0.3 ppm: 10%
Same manner as Example 6 (0.3 ppm), treated vs untreated leaf pieces, Table 10
  activity at 0.3 ppm: 18.4%
Same manner as Example 6 (0.3 ppm), treated vs untreated leaf pieces, Table 12
  activity at 0.3 ppm: 8.29%
0.3 ppm, leaf pieces 7 days in light place, Table 4
  Total chlorophyll content treated-leaf: 0.19 mg/g-fresh weight
2.0 ppm, 7 days in a light place, chlorophyll of treated vs untreated leaf pieces, Example 37
  resistant level: 2.88%
Same manner as Example 6 (0.3 ppm, 7 days in light), Table 8
  Total chlorophyll content treated-leaf: 0.35 mg/g-fresh weight
Same manner as Example 6 (0.3 ppm, 7 days in light), Table 10
  Total chlorophyll content treated-leaf: 0.42 mg/g-fresh weight
Same manner as Example 6 (0.3 ppm, 7 days in light), Table 12
  Total chlorophyll content treated-leaf: 0.160 mg/g-fresh weight
